From patent US8153631B2, “Triazole compounds and uses related thereto” (Amgen Inc., priority 2003, dated 2012)
pIC50: −log10 of the molar value.

Molecular target: T1, human HSD1 (recombinant HSD1) (Homo sapiens, UniProt P28845)
T1 construct: made in house
Test: In vitro HSD1 activity inhibitory action, SPA of cortisone to cortisol conversion
Assay type: biochemical
Details: recombinant human HSD1 0.1 μg/ml, 500 μM NADPH, 16 nM 3H cortisone, room temperature 90 min, read-out: hHSD1 IC50
In short: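 Baculovirus-expressed recombinant HSD1 (0.1 μg/ml) with 500 μM NADPH and 16 nM ³H-cortisone in 0.1% BSA/PBS, 90 min at room temperature. Stopped with anti-cortisol antibody, SPA beads and carbenoxolone, read after overnight incubation. Inhibition scaled between DMSO (0%) and 50 μM carbenoxolone (100%); IC50 by curve fitting.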

T1 sequence (P28845 whole entry): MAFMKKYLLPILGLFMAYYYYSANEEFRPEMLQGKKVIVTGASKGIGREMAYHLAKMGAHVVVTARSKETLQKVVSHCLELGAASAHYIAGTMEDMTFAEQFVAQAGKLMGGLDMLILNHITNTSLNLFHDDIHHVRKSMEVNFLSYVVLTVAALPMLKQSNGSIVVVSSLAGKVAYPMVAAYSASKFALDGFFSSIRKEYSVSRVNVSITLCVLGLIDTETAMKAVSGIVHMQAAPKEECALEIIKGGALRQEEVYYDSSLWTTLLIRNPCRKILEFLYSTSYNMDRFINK

Compound | pIC50
Cn1c(N2CCN(c3ccc(F)cc3)CC2)nnc1C1(c2ccccc2)CC1 [Ex. 2-89] | 6.00 to 8.00
Cn1c(N2CCN(c3ccc(Cl)cc3)CC2)nnc1C1(c2ccccc2)CC1 [Ex. 2-90] | 6.00 to 8.00
Cn1c(N2Cc3ccccc3C2)nnc1C1(c2ccccc2)CC1 [Ex. 2-91] | > 8.00
CCN(Cc1ccccc1)c1nnc(C2(c3ccccc3)CC2)n1C [Ex. 2-92] | > 8.00
CN(c1ccccc1)c1nnc(C2(c3ccccc3)CC2)n1C [Ex. 2-93] | > 8.00
CN(c1ccc(Cl)cc1)c1nnc(C2(c3ccccc3)CC2)n1C [Ex. 2-94] | > 8.00
CN(c1ccccn1)c1nnc(C2(c3ccccc3)CC2)n1C [Ex. 2-95] | > 8.00
CN(c1ccccc1)c1nnc(C2(c3ccc(F)cc3)CC2)n1C [Ex. 2-96] | > 8.00
